Tests used:
[1] = tested on: SARS-CoV-2 South African variant (linage: B.1.351); assay: microbe, parasite or virus in culture; type: cell-based; details: Severe acute respiratory syndrome coronavirus 2, Calu-3, read-out: IC50, inhibition of SARS-CoV-2 replication
[2] = tested on: SARS-CoV-2 Scotland variant (linage: B.1.222); assay: microbe, parasite or virus in culture; type: cell-based; details: Severe acute respiratory syndrome coronavirus 2, Calu-3, read-out: IC50, inhibition of SARS-CoV-2 replication

CN1C(=O)c2ccccc2[S+]([O-])c2cc([N+](=O)[O-])ccc2S1(=O)=O (stereo not shown) [MU-UNMC-1, 6-methyl-2-nitrodibenzo[d,g][1,6,2]dithiazocin-7(6H)-one 5,5,12-trioxide]
IC50 [1]: 9270 nM | IC50 [2]: 2640 nM

O=C1Nc2cc(C(F)(F)F)ccc2Oc2ccsc21 [MU-UNMC-2, 7-(trifluoromethyl) benzo[b]thieno[2,3-f][1,4]oxazepin-10(9H)-one]
IC50 [1]: 3000 nM | IC50 [2]: 1390 nM

Reference: PMC8610590 (Journal of Virology, 2021)
